Experimental data as given in patent US11852632B2, “Cancer test device, cancer test method, and staining agent for use in cancer test” (MIE UNIVERSITY, priority 2016, dated 2023).
Like-named read-outs stand apart in the source and are kept apart here.

Tests used:
healthy mucosa tissue = system: healthy mucosa tissue; design: species or system laboratory mouse; details: mouse, in vivo
Description: (§1) A laboratory mouse was used as the living body. […] The staining period was set at 5 minutes.

cancer tissue = assay type: in vivo, laboratory mouse; details: mouse; for depth to which the tissue is stained: in vivo
Description: as §1

[1] = target: T1, cancer-related gene product STAT3 (Mus musculus, UniProt P42227); assay: Curcumin living body staining compared with anti-STAT3 antibody immunostaining of the same site, confocal laser microscope; assay type: in vivo, laboratory mouse; details: 1%-curcumin then 1%-Acid Red, FIG. 4A (b) versus (e)
T1 construct: used to stain the expressed STAT3-family cancer-related gene product in the living cell; from tissue; host or cells: inner wall of the large intestine of a living laboratory mouse (cancerous and healthy sites)
T1 sequence (P42227 whole entry): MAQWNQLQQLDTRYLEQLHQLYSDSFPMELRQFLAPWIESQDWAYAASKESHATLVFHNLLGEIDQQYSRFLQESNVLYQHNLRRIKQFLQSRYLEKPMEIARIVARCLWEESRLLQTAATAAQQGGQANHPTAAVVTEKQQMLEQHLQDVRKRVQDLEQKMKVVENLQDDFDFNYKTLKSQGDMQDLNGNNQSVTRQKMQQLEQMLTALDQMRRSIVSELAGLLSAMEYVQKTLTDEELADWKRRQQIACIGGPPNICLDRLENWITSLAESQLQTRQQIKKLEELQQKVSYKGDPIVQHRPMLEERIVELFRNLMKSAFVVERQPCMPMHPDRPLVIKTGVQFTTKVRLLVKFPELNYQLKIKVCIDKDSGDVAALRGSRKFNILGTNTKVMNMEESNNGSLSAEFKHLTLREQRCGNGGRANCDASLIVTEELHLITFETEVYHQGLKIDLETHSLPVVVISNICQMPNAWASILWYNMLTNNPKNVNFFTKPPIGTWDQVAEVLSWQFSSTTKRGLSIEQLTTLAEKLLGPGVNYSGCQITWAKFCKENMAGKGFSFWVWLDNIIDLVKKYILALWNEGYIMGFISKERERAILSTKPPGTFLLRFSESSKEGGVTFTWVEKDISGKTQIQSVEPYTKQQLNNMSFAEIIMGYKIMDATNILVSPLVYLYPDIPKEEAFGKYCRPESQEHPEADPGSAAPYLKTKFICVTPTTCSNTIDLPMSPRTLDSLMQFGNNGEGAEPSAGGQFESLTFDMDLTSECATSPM
Description: The sections (a), (b), and (c) of FIG. 4A are images of a sample that is a double-stained living cell group of the inner wall of the intestine of a living laboratory mouse produced by staining the inner wall of the intestine with a 1%-curcumin solution and then staining the curcumin-stained inner wall with 1%-Acid Red (C27H29N2NaO7S2). A confocal laser microscope was used as the image device.
It is therefore determined that the site containing the cell group heavily stained with the curcumin stain is ultra-early cancer. The three panels (d), (e), and (f) in the lower row of FIG. 4A show images of the same site of the large intestine of the digestive tract of the laboratory mouse imaged in the same living body staining as that in the upper row, fixed with formalin, and then imaged in the fluorescence antibody technique. […] The section (f) is a (d)+(e) superimposed image.
The sections (d), (e), and (f) of FIG. 4A are produced by fixing the intestine of the laboratory mouse described above with formalin, then immunostaining the intestine with an anti-STAT3 antibody that bonds to the STAT3-family cancer-related gene product, and imaging the same location as those surrounded by the white frames in the sections (a), (b), and (c). In the sections (d) to (f), the samples were fixed with formalin and therefore slightly shrunk.

depth to which the tissue is stained (healthy mucosa tissue)	permeability in the cancer tissue compared with the healthy mucosa tissue (cancer tissue)	depth to which the tissue is stained (cancer tissue)	depth to which the tissue is stained (healthy mucosa tissue; 5 min)	depth to which the tissue is stained (cancer tissue; 5 min)	Compound	distribution of heavily stained cell group versus cell group with STAT3 highly expressed (anti-STAT3 antibody) [1]
about 70 μm	lower permeability	about 40 μm	–	–	CCN(CC)c1ccc2c(-c3ccc(S(=O)(=O)[O-])cc3S(=O)(=O)[O-])c3ccc(=[N+](CC)CC)cc-3oc2c1.[Na+] [Acid Red]	–
–	higher permeability	–	about 20 μm	about 40 μm	COc1cc(/C=C/C(=O)CC(=O)/C=C/c2ccc(O)c(OC)c2)ccc1O [curcumin]	coincides with the distribution of the cell group shown in the section (e) in the lower row and having the cancer-related gene product STAT3 highly expressed
